{"source": "ChEMBL document CHEMBL3785084", "about": "“Rational modification of the lead molecule: Enhancement in the anticancer and dihydrofolate reductase inhibitory activity” (Bioorg Med Chem Lett, 2016)", "key": {"[1]": {"system": "HT-29", "assay": "Cytotoxicity against human HT-29 cells assessed as cell growth at 10^-5 M after 48 hrs by sulforhodamine B assay", "assay_type": "functional", "details": "HT-29, 48 h, read-out: Activity"}, "[2]": {"assay": "Cytotoxicity against human UACC62 cells assessed as cell growth at 10^-5 M after 48 hrs by sulforhodamine B assay", "assay_type": "functional", "details": "UACC-62, 48 h, read-out: Activity"}, "[3]": {"assay": "Cytotoxicity against human OVCAR4 cells assessed as cell growth at 10^-5 M after 48 hrs by sulforhodamine B assay", "assay_type": "functional", "details": "OVCAR-4, 48 h, read-out: Activity"}, "[4]": {"system": "EKVX", "assay": "Cytotoxicity against human EKVX cells assessed as cell growth at 10^-5 M after 48 hrs by sulforhodamine B assay", "assay_type": "functional", "details": "read-out: Activity"}, "[5]": {"system": "SK-MEL-2", "assay": "Cytotoxicity against human SK-MEL-2 cells assessed as cell growth at 10^-5 M after 48 hrs by sulforhodamine B assay", "assay_type": "functional", "details": "SK-MEL-2, 48 h, read-out: Activity"}, "[6]": {"system": "SN12C", "assay": "Cytotoxicity against human SN12C cells assessed as cell growth at 10^-5 M after 48 hrs by sulforhodamine B assay", "assay_type": "functional", "details": "read-out: Activity"}, "[7]": {"system": "K562", "assay": "Cytotoxicity against human K562 cells assessed as cell growth at 10^-5 M after 48 hrs by sulforhodamine B assay", "assay_type": "functional", "details": "K562, 48 h, read-out: Activity"}, "[8]": {"target": "T1, Dihydrofolate reductase (Homo sapiens, UniProt P00374)", "T1 sequence (P00374 whole entry)": "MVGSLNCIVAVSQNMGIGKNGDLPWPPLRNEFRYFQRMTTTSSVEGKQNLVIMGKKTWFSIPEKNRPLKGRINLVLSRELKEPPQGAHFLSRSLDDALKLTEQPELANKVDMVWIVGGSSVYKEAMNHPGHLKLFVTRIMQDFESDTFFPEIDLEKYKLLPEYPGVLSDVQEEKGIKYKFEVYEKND", "assay": "Inhibition of human DHFR assessed as conversion of dihydrofolic acid to tetrahydrfolic acid by enzyme immunoassay in presence of NADPH"}, "[9]": {"assay": "Cytotoxicity against human HL-60(TB) cells assessed as cell growth at 10^-5 M after 48 hrs by sulforhodamine B assay", "assay_type": "functional", "details": "HL-60, 48 h, read-out: Activity"}, "[10]": {"assay": "Cytotoxicity against human MOLT4 cells assessed as cell growth at 10^-5 M after 48 hrs by sulforhodamine B assay", "assay_type": "functional", "details": "MOLT-4, 48 h, read-out: Activity"}, "[11]": {"assay": "Cytotoxicity against human IGROV1 cells assessed as cell growth at 10^-5 M after 48 hrs by sulforhodamine B assay", "assay_type": "functional", "details": "IGROV-1, 48 h, read-out: Activity"}, "[12]": {"assay": "Cytotoxicity against human BT549 cells assessed as cell growth at 10^-5 M after 48 hrs by sulforhodamine B assay", "assay_type": "functional", "details": "BT-549, 48 h, read-out: Activity"}, "[13]": {"system": "MCF7", "assay": "Cytotoxicity against human MCF7 cells assessed as cell growth at 10^-5 M after 48 hrs by sulforhodamine B assay", "assay_type": "functional", "details": "MCF7, 48 h, read-out: Activity"}, "[14]": {"system": "T47D", "assay": "Cytotoxicity against human T47D cells assessed as cell growth at 10^-5 M after 48 hrs by sulforhodamine B assay", "assay_type": "functional", "details": "read-out: Activity"}, "[15]": {"assay": "Cytotoxicity against human SKOV3 cells assessed as cell growth at 10^-5 M after 48 hrs by sulforhodamine B assay", "assay_type": "functional", "details": "SK-OV-3, 48 h, read-out: Activity"}, "[16]": {"assay": "Cytotoxicity against human RXF393 cells assessed as cell growth at 10^-5 M after 48 hrs by sulforhodamine B assay", "assay_type": "functional", "details": "RXF 393, 48 h, read-out: Activity"}, "[17]": {"assay": "Cytotoxicity against human HCC2998 cells assessed as cell growth at 10^-5 M after 48 hrs by sulforhodamine B assay", "assay_type": "functional", "details": "HCC 2998, 48 h, read-out: Activity"}, "[18]": {"assay": "Cytotoxicity against human OVCAR3 cells assessed as cell growth at 10^-5 M after 48 hrs by sulforhodamine B assay", "assay_type": "functional", "details": "OVCAR-3, 48 h, read-out: Activity"}, "[19]": {"system": "SK-MEL-28", "assay": "Cytotoxicity against human SK-MEL-28 cells assessed as cell growth at 10^-5 M after 48 hrs by sulforhodamine B assay", "assay_type": "functional", "details": "SK-MEL-28, 48 h, read-out: Activity"}}, "data": [{"smiles": "O=C1NC(=O)C(=Cc2cn(CC(O)Cn3cc(C=C4C(=O)NC(=O)NC4=O)c4ccccc43)c3ccccc23)C(=O)N1", "values": [{"measurement": "growth at 10 µM", "setting": "[1]", "result": 88.3, "unit": "%"}, {"measurement": "growth at 10 µM", "setting": "[2]", "result": 106, "unit": "%"}, {"measurement": "growth at 10 µM", "setting": "[3]", "result": 100, "unit": "%"}, {"measurement": "growth at 10 µM", "setting": "[4]", "result": 101, "unit": "%"}, {"measurement": "growth at 10 µM", "setting": "[5]", "result": 113, "unit": "%"}, {"measurement": "growth at 10 µM", "setting": "[6]", "result": 107, "unit": "%"}, {"measurement": "growth at 10 µM", "setting": "[7]", "result": 107, "unit": "%"}, {"measurement": "IC50", "setting": "[8]", "result": 5, "unit": "µM"}, {"measurement": "growth at 10 µM", "setting": "[9]", "result": 107, "unit": "%"}, {"measurement": "growth at 10 µM", "setting": "[10]", "result": 110, "unit": "%"}, {"measurement": "growth at 10 µM", "setting": "[11]", "result": 97.3, "unit": "%"}, {"measurement": "growth at 10 µM", "setting": "[12]", "result": 82.6, "unit": "%"}, {"measurement": "growth at 10 µM", "setting": "[13]", "result": 91.1, "unit": "%"}, {"measurement": "growth at 10 µM", "setting": "[14]", "result": 91.8, "unit": "%"}, {"measurement": "growth at 10 µM", "setting": "[15]", "result": 102, "unit": "%"}, {"measurement": "growth at 10 µM", "setting": "[16]", "result": 89.1, "unit": "%"}, {"measurement": "growth at 10 µM", "setting": "[17]", "result": 94.6, "unit": "%"}, {"measurement": "growth at 10 µM", "setting": "[18]", "result": 109, "unit": "%"}, {"measurement": "growth at 10 µM", "setting": "[19]", "result": 111, "unit": "%"}]}, {"smiles": "CN1C(=O)C(=Cc2cn(CC(O)Cn3cc(C=C4C(=O)N(C)C(=O)N(C)C4=O)c4ccccc43)c3ccccc23)C(=O)N(C)C1=O", "values": [{"measurement": "growth at 10 µM", "setting": "[1]", "result": 112, "unit": "%"}, {"measurement": "growth at 10 µM", "setting": "[2]", "result": 88.3, "unit": "%"}, {"measurement": "growth at 10 µM", "setting": "[3]", "result": 97.2, "unit": "%"}, {"measurement": "growth at 10 µM", "setting": "[4]", "result": 91.7, "unit": "%"}, {"measurement": "growth at 10 µM", "setting": "[5]", "result": 118, "unit": "%"}, {"measurement": "growth at 10 µM", "setting": "[6]", "result": 99.1, "unit": "%"}, {"measurement": "growth at 10 µM", "setting": "[7]", "result": 97.3, "unit": "%"}, {"measurement": "IC50", "setting": "[8]", "result": 20, "unit": "µM"}, {"measurement": "growth at 10 µM", "setting": "[9]", "result": 107, "unit": "%"}, {"measurement": "growth at 10 µM", "setting": "[10]", "result": 106, "unit": "%"}, {"measurement": "growth at 10 µM", "setting": "[11]", "result": 78.8, "unit": "%"}, {"measurement": "growth at 10 µM", "setting": "[12]", "result": 92.3, "unit": "%"}, {"measurement": "growth at 10 µM", "setting": "[13]", "result": 91.8, "unit": "%"}, {"measurement": "growth at 10 µM", "setting": "[14]", "result": 91.8, "unit": "%"}, {"measurement": "growth at 10 µM", "setting": "[15]", "result": 85.2, "unit": "%"}, {"measurement": "growth at 10 µM", "setting": "[16]", "result": 104, "unit": "%"}, {"measurement": "growth at 10 µM", "setting": "[17]", "result": 104, "unit": "%"}, {"measurement": "growth at 10 µM", "setting": "[18]", "result": 95.2, "unit": "%"}, {"measurement": "growth at 10 µM", "setting": "[19]", "result": 109, "unit": "%"}]}]}
